Data reported in the supplement of paper PMC10307832.

Tests used:
Assay in all cases: relative viability (nuclei count vs DMSO), 5 days (fraction); higher = more cells survive
AZD5582 + Bortezomib = compound: C[C@@H](C(=O)N[C@@H](C1CCCCC1)C(=O)N2CCC[C@H]2C(=O)N[C@@H]3[C@@H](CC4=CC=CC=C34)OCC#CC#CCO[C@@H]5CC6=CC=CC=C6[C@@H]5NC(=O)[C@@H]7CCCN7C(=O)[C@H](C8CCCCC8)NC(=O)[C@H](C)NC)NC [AZD5582] + CC(C)C[C@H](NC(=O)[C@H](Cc1ccccc1)NC(=O)c1cnccn1)B(O)O [Bortezomib] (partner 0.002 µM)
In short: (§1)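 Lung cancer cell lines were seeded in 1536-well plates and dosed by pin tool the next day, with either a single drug or a fixed anchor-drug dose combined with five library-drug doses (not always all listed) spaced in √10 steps. Five days later, one step fixed the cells and stained their nuclei (final 0.05% Triton X-100, 1% formaldehyde, 1 ug/ml Hoechst), and nuclei were counted on 4× images. Relative viability is the nuclei count in treated wells divided by the count in vehicle wells, and each value is the median of duplicate plates.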

AZD5582 + Decitabine = compound: C[C@@H](C(=O)N[C@@H](C1CCCCC1)C(=O)N2CCC[C@H]2C(=O)N[C@@H]3[C@@H](CC4=CC=CC=C34)OCC#CC#CCO[C@@H]5CC6=CC=CC=C6[C@@H]5NC(=O)[C@@H]7CCCN7C(=O)[C@H](C8CCCCC8)NC(=O)[C@H](C)NC)NC [AZD5582] + Nc1ncn([C@H]2C[C@H](O)[C@@H](CO)O2)c(=O)n1 [Decitabine] (partner 2 µM)
In short: as §1

[1] = compound: Cn1nnc2c(C(N)=O)ncn2c1=O [Temozolomide] + CCNC(=O)c1noc(-c2cc(C(C)C)c(O)cc2O)c1-c1ccc(CN2CCOCC2)cc1 [Luminespib] (partner 0.01 µM)
In short: as §1

Temozolomide + Dasatinib = compound: Cn1nnc2c(C(N)=O)ncn2c1=O [Temozolomide] + Cc1nc(Nc2ncc(C(=O)Nc3c(C)cccc3Cl)s2)cc(N2CCN(CCO)CC2)n1 [Dasatinib] (partner 0.075 µM)
In short: as §1

Cell Line	relative viability (AZD5582 + Bortezomib; first compound 0.001581 µM)	relative viability (AZD5582 + Bortezomib; first compound 0.005 µM)	relative viability (AZD5582 + Bortezomib; first compound 0.01581 µM)	relative viability (AZD5582 + Bortezomib; first compound 0.05 µM)	relative viability (AZD5582 + Decitabine; first compound 0.001581 µM)	relative viability (AZD5582 + Decitabine; first compound 0.005 µM)	relative viability (AZD5582 + Decitabine; first compound 0.01581 µM)	relative viability (AZD5582 + Decitabine; first compound 0.05 µM)	relative viability ([1]; first compound 0.2 µM)	relative viability ([1]; first compound 0.6325 µM)	relative viability ([1]; first compound 2 µM)	relative viability ([1]; first compound 6.325 µM)	relative viability ([1]; first compound 20 µM)	relative viability (Temozolomide + Dasatinib; first compound 0.2 µM)	relative viability (Temozolomide + Dasatinib; first compound 0.6325 µM)	relative viability (Temozolomide + Dasatinib; first compound 2 µM)	relative viability (Temozolomide + Dasatinib; first compound 6.325 µM)	relative viability (Temozolomide + Dasatinib; first compound 20 µM)
NCI-H2023	0.934	1.1	0.721	0.716	0.217	0.2	0.243	0.204	1.04	0.85	0.874	0.675	0.691	0.64	0.56	0.616	0.572	0.6
NCI-H2085	0.953	1.19	0.933	1.17	0.527	0.644	0.608	0.545	0.476	0.415	0.41	0.449	0.487	0.22	0.293	0.282	0.262	0.218
NCI-H2087	0.874	0.861	0.735	0.933	0.336	0.299	0.255	0.28	0.204	0.188	0.188	0.165	0.168	0.909	0.97	1.02	0.734	0.882
NCI-H2126	1.08	1.1	1.01	1.05	0.53	0.577	0.581	0.59	0.917	0.927	1	0.802	0.888	0.634	0.664	0.678	0.61	0.641
NCI-H2347	0.73	0.949	0.693	0.929	0.701	0.624	0.668	0.469	0.417	0.414	0.608	0.488	0.322	0.328	0.329	0.298	0.303	0.282
NCI-H2405	0.972	1.01	0.88	0.947	0.772	0.861	0.687	0.721	0.67	0.77	0.817	0.513	0.751	0.214	0.222	0.254	0.199	0.21
NCI-H3122	1.03	0.954	1.07	0.729	0.476	0.384	0.42	0.224	0.0795	0.105	0.125	0.0851	0.0839	0.931	0.803	0.886	0.812	0.828
PC-3 [JPC-3]	0.8	0.788	0.793	0.38	0.737	0.641	0.855	0.431	0.63	0.739	0.776	0.659	0.421	0.825	0.987	1.07	1.02	0.438
PC-14	0.736	0.777	0.85	0.743	0.12	0.165	0.205	0.116	0.143	0.151	0.167	0.244	0.144	0.216	0.317	0.318	0.257	0.0365
RERF-LC-KJ		0.42	1.11	0.654			0.779	0.208	1.29	1.19	1.32	1.19	1.27	0.913	0.825	0.931	0.931	0.767
SK-LU-1	0.436	0.697	0.856	0.477	0.535	0.379	0.673	0.21	0.231	0.195	0.189	0.191	0.24	0.196	0.178	0.206	0.143	0.197
SW 1573	1.3	0.996	1.04	1.43	0.551	0.631	0.674	0.685	0.295	0.331	0.273	0.206	0.28	0.532	0.533	0.594	0.355	0.489
UMC-11	0.677	0.873	0.733	0.709	0.637	0.638	0.731	0.71	1.05	1.07	1.17	0.971	0.66	0.567	0.469	0.536	0.489	0.442
